Where a name gives a salt, the structure may show the parent alone. Read-outs that look alike come from different tables or passages of the source.
Tests used:
[1] = biological target: ALPK1 (Homo sapiens (Human), UniProt Q96QP1); assay: ALPK1 in vitro kinase assay (HTRF of TIFA phosphorylation); assay type: biochemical
Protocol: ALPK1 kinase activity was measured in an in vitro assay using ADP-Heptose as the ALPK1 ligand and activator of its kinase activity and TIFA protein as the ALPK1 phosphorylation substrate. Since phosphorylated TIFA proteins oligomerize, Homogeneous Time-Resolved Fluorescence (HTRF) was used to measure protein:protein interaction between HA-tagged TIFA proteins as an indicator of TIFA phosphorylation.
In brief, dose-response studies were performed with HEK293 cells cultured in Dulbecco's Modified Eagle Medium (DMEM) supplemented 10% fetal bovine serum (FBS, Hyclone™) containing antibiotics (pen/strep, G418) in 384-well assay plates. Each well contained 0.1 mg TIFA, ALPK1 (2 nM final concentration in reaction mixture) and kinase buffer (100 mM of HEPES pH 7.4, 4 mM DTT, 40 mM MgCl2, 20 mM of β-Glycerol phosphate disodium salt, 0.4 mM of Na3VO4, 0.16 mg/mL). Titrations of the test compounds were prepared in dimethylsulphoxide (DMSO). The reaction was initiated by addition of ATP and ADP-Heptose.
For HTRF, samples were incubated with a Tb cryptate-labeled anti-HA antibody for capturing HA-tagged proteins according to the manufacturer's instructions (PerkinElmer™, CisBio™) and the fluorescence signal was quantified (Tecan Infinite F NANO+). HTRF signals were calculated as the HTRF ratio (ratio of fluorescence measured at 665 nm and 620 nm)×104 (thereby using the signal at 620 nm as an internal standard).
IC50 values were determined using 3- or 4-parameter logistic equation using GraphPad Prism version 6.00. The reference compound, A027, was used as a positive control for each plate.

[2] = test system: ALPK1-dependent NFκB reporter gene activation; assay: NFκB gene reporter alkaline phosphatase assay in HEK293 G9 cells; assay type: cell-based, human; settings: read-out: NFkB assay IC50
Protocol: An alkaline phosphatase reporter assay system was used to measure inhibition of ALPK1-dependent NFκB reporter gene activation. Briefly, HEK293 cells stably expressing an NF-kB reporter (referred to herein as “G9 cells”) were maintained in DMEM as described above. For the assay, cells were seeded into 96-well plates at a density of 10,000 cells/well in Freestyle-M 293 Expression Medium (ThermoFisher), and allowed to attach overnight. […] NFkB gene activation was detected using the chromogenic substrate, para-nitrophenyl phosphate (pNPP) according to the manufacturer's protocols (pNPP Phosphatase Assay, Beyotine Biotechnology).

[3] = test system: ALPK1-dependent innate immunity gene expression in PBMC; assay: Inhibition of ALPK1 in PBMC cells (innate immunity gene mRNA, RT-PCR); assay type: in vivo, Sprague-Dawley (SD) rats; settings: SD rats, 10 mpk oral, 2 h before ip ALPK1 agonist, blood 3 h later, compared with vehicle group
Protocol: We examined whether ALPK1 inhibitors can suppress ALPK1-dependent activation of a set of such genes in rats. […] PBMCs were collected and gene expression analyzed, as described in more detail below.
After 3 hours administration of the ALPK1 agonist, the blood was collected from heart, and PBMC were extracted from each group.

[4] = test system: ALPK1-TIFA-IL1β pathway in THP-1-derived macrophage cells; assay: PMA-differentiated THP-1 cell based assay (IL1β mRNA after ALPK1 agonist); settings: Homo sapiens; PMA-differentiated THP-1 cells, 2 h pretreatment, 4 h ALPK1 agonist; read-out: IC50 of IL1β mRNA induced by ALPK1 activation
Protocol: Peripheral blood mononuclear cells (PBMCs) from Kawasaki patients show activation of ALPK1-TIFA-IL1β pathway. […] THP-1 cells were cultured in RPMI 1640 containing 10% heat inactivated FBS, penicillin (100 units/ml) and streptomycin ([…]), and maintained in a humidified incubator with 95% atmospheric air and 5% CO2. Prior to the experiment, THP-1 cells were seeded into 24-well flat-bottom plate at a cell density of […]. Phorbol myristate acetate (PMA; 50 ng/mil) was used to treat THP-i cells for 48 h, and then THP-1-derived macrophages were obtained. […] Total RNA was extracted using the TRIzol method and reverse-transcribed. The mRNA expression levels IL1β were detected by SYBR green gene expression assays. Expression levels of mRNA were normalized to GAPDH. Relative expression was calculated by comparing to vehicle control and the values were plotted as fold induction. All activity results were expressed as the mean of triplicate determinations.

[5] = test system: ALPK1-dependent innate immunity gene expression; assay: Inhibition of ALPK1 in coronary artery, aorta and heart muscle (innate immunity gene mRNA, RT-PCR); assay type: in vivo, Sprague-Dawley (SD) rats; settings: SD rats, 40 mpk oral, 2 h before ip ALPK1 agonist, tissue 3 h later, compared with vehicle group
[6] = ADP-Heptose activated ALPK1, TIFA substrate, HTRF

ALPK1, sequence (Q96QP1 whole entry): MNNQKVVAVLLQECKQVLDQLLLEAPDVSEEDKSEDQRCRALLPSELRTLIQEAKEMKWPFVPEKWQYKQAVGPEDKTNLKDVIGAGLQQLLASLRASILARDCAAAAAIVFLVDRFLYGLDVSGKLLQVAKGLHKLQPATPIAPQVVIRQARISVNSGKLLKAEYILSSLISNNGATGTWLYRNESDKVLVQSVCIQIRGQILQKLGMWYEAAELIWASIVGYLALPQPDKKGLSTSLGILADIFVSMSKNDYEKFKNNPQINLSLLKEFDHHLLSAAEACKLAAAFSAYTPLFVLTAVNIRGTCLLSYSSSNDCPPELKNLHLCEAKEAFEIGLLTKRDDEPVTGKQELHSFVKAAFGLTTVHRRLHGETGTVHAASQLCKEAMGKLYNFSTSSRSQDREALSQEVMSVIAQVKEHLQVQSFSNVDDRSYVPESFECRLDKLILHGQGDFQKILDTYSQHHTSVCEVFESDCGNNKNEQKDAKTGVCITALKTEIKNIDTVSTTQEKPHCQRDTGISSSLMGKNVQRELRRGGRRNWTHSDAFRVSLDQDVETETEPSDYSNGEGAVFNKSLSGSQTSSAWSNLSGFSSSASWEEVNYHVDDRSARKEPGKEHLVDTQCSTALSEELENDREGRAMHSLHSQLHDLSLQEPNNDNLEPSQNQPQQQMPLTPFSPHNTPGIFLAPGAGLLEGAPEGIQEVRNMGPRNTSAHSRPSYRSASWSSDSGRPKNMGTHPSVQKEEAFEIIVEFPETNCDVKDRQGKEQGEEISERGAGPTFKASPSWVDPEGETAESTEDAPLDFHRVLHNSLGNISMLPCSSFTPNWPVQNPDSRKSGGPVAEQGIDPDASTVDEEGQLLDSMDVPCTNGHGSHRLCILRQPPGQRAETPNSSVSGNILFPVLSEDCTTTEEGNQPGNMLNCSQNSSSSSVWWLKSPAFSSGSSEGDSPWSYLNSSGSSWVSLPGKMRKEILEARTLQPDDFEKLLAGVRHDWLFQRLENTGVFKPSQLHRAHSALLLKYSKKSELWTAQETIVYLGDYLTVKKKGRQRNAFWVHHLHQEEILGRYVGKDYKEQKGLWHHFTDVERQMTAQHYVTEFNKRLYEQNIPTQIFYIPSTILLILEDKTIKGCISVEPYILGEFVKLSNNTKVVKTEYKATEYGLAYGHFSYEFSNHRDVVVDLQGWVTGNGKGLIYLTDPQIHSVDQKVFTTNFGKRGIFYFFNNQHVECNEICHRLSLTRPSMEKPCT

`COc1ccc(C(C)(C)c2csc(NC(=O)NCc3cnccn3)n2)cc1` [A007, 1-(4-(2-(4-methoxyphenyl)propan-2-yl)thiazol-2-yl)-3-(pyrazin-2-ylmethyl)urea] gave an IC50 [1] of 91 nM and an IC50 ([2]; Homo sapiens, HEK293) of 5580 nM.

In the case of `CC(C)(c1ccc(Br)cc1)c1csc(NC(=O)NCc2cccc(N3CCNCC3)c2)n1` [A005, 1-(4-(2-(4-bromophenyl)propan-2-yl)thiazol-2-yl)-3-(3-(piperazin-1-yl)benzyl)urea], the IC50 [1] is reported as 97 nM and the IC50 ([2]; Homo sapiens, HEK293) is reported as 3150 nM.

For `COc1ccc(C(C)(C)c2csc(NC(=O)NCc3cc(F)c(C4CCNCC4)c(F)c3)n2)cc1` [A151, 1-(3,5-difluoro-4-(piperidin-4-yl)benzyl)-3-(4-(2-(4-methoxyphenyl)propan-2-yl)thiazol-2-yl)urea hydrochloride], the IC50 ([2]; Homo sapiens, HEK293) was 950 nM.

In the case of `COc1ccc(C(C)(C)c2csc(NC(=O)NCc3ccc(N4CCC(N)C4)nc3)n2)cc1` (stereo not drawn) [A199, 1-((6-(3-aminopyrrolidin-1-yl)pyridin-3-yl)methyl)-3-(4-(2-(4-methoxyphenyl)propan-2-yl)thiazol-2-yl)urea], the IC50 ([2]; Homo sapiens, HEK293) is reported as 460 nM.

In the case of `C#C[C@](C)(c1ccc(Cl)cc1)c1csc(NC(=O)N2CC(CO)C2)n1` [A257, (R)-N-(4-(2-(4-chlorophenyl)but-3-yn-2-yl)thiazol-2-yl)-3-(hydroxymethyl)azetidine-1-carboxamide], the IC50 [1] is reported as 246 nM.

Compound `COc1ccc(C(C)(C)c2csc(NC(=O)NCc3cc(F)c(N4CCNCC4)cc3F)n2)cc1` [A231, 1-(2,5-difluoro-4-(piperazin-1-yl)benzyl)-3-(4-(2-(4-methoxyphenyl)propan-2-yl)thiazol-2-yl)urea hydrochloride] has an IC50 ([2]; Homo sapiens, HEK293) of 3360 nM.

`C#CC(C)(c1ccc(Br)cc1)c1csc(NC(=O)NCCN2CCNCC2)n1` (stereo not drawn) [A239, 1-(4-(2-(4-bromophenyl)but-3-yn-2-yl)thiazol-2-yl)-3-(2-(piperazin-1-yl)ethyl)urea] gave an IC50 [1] of 20 nM.

For `C#C[C@](C)(c1ccc(OC)cc1)c1csc(NC(=O)N2CC(CO)C2)n1` [A255, (R)-3-(hydroxymethyl)-N-(4-(2-(4-methoxyphenyl)but-3-yn-2-yl)thiazol-2-yl)azetidine-1-carboxamide], the IC50 [1] was 109 nM.

`C#C[C@@](C)(c1ccc(Cl)cc1)c1csc(NC(=O)N2CC(CO)C2)n1` [A258, (S)-N-(4-(2-(4-chlorophenyl)but-3-yn-2-yl)thiazol-2-yl)-3-(hydroxymethyl)azetidine-1-carboxamide] gave an IC50 [1] of 57 nM.

For `C#C[C@@](C)(c1ccc(Cl)cc1)c1csc(NC(=O)NCCO)n1` [A176, (S)-1-(4-(2-(4-chlorophenyl)but-3-yn-2-yl)thiazol-2-yl)-3-(2-hydroxyethyl)urea], the “mRNA expressions of PBMC CCL-2, CCL-7, CXCL-1, CXCL-10, CXCL-11 and IL-1β” value [3] was “significantly decreased” and the IC50 [4] was 97 nM.

With `C#C[C@@](C)(c1ccc(Cl)cc1)c1csc(NC(=O)c2ccc(N3CCNCC3)cc2)n1` (stereo in doubt) [B093, N-(4-(2-(4-chlorophenyl)but-3-yn-2-yl)thiazol-2-yl)-4-(piperazin-1-yl)benzamide] the IC50 [1, 6] was 43 nM.

In the case of `C#C[C@@](C)(c1ccc(Cl)cc1)c1csc(NC(=O)c2c(F)cc(N3CCNCC3)cc2F)n1` [C008, (S)-N-(4-(2-(4-chlorophenyl)but-3-yn-2-yl)thiazol-2-yl)-2,6-difluoro-4-(piperazin-1-yl)benzamide], the “mRNA expressions of PBMC CCL-7, CXCL-1, CXCL-10, CXCL-11, IL-1β, TNF-α and IL-6” value [3] is reported as “significantly decreased”, the IC50 [4] is reported as 15 nM and the “mRNA expression of aorta IL-6, CXCL-1, CXCL-10, CCL-2” value [5] is reported as “significantly decreased”. The “mRNA expression of cardiac muscle TNF-a, IL-1b, IL-6, CXCL-1, CXCL-10, CXCL-11, CCL-2 and CCL-5” value [5] was “significantly decreased” and the “mRNA expression of coronary artery TNF-α, CXCL-1, CCL-2 and CCL-7” value [5] was “significantly decreased”.

For `CC(C)(c1ccc(I)cc1)c1csc(NC(=O)NCc2cnc(N3CCNCC3)nc2)n1` [A178, 1-(4-(2-(4-iodophenyl)propan-2-yl)thiazol-2-yl)-3-((2-(piperazin-1-yl)pyrimidin-5-yl)methyl)urea], the IC50 [1] was 42 nM.

`COc1ccc(C(C)(CO)c2csc(NC(=O)NC(C)c3ccc(N4CCNCC4)cc3)n2)cc1` (stereo not drawn) [A235, 1-(4-(1-hydroxy-2-(4-methoxyphenyl)propan-2-yl)thiazol-2-yl)-3-(1-(4-(piperazin-1-yl)phenyl)ethyl)urea] was tested, and the IC50 [1] was 61 nM.

`C#C[C@](C)(c1ccc(Cl)cc1)c1csc(NC(=O)c2ccc(N3CCNCC3)cc2)n1` (stereo in doubt) [B092, N-(4-(2-(4-chlorophenyl)but-3-yn-2-yl)thiazol-2-yl)-4-(piperazin-1-yl)benzamide] showed an IC50 [1, 6] of 219 nM.

In the case of `C#CC(C)(c1ccc(OC)cc1)c1csc(NC(=O)NC(C)c2ccc(N3CCNCC3)cc2)n1` (stereo not drawn) [A234, 1-(4-(2-(4-methoxyphenyl)but-3-yn-2-yl)thiazol-2-yl)-3-(1-(4-(piperazin-1-yl)phenyl)ethyl)urea], the IC50 [1] is reported as 36 nM.

For `C#C[C@@](C)(c1ccc(F)cc1)c1csc(NC(=O)NCCO)n1` (stereo in doubt) [A283, 1-(4-(2-(4-fluorophenyl)but-3-yn-2-yl)thiazol-2-yl)-3-(2-hydroxyethyl)urea], the IC50 [1] was 550 nM.

With `C#CC(C)(c1ccc(Cl)cc1)c1csc(NC(=O)N2CCc3cc(N4CCNCC4)ccc3C2)n1` (stereo not drawn) [A281] the IC50 [2] was 860 nM.

In the case of `C#CC(C)(c1ccc(Cl)cc1)c1csc(NC(=O)c2ccc(N3CCNCC3)c(OC)c2)n1` (stereo not drawn) [B066, N-(4-(2-(4-chlorophenyl)but-3-yn-2-yl)thiazol-2-yl)-3-methoxy-4-(piperazin-1-yl)benzamide], the IC50 [1, 6] is reported as 29 nM.

Compound `C#C[C@@](C)(c1ccc(OC)cc1)c1csc(NC(=O)N2CC(CO)C2)n1` [A256, (S)-3-(hydroxymethyl)-N-(4-(2-(4-methoxyphenyl)but-3-yn-2-yl)thiazol-2-yl)azetidine-1-carboxamide] has an IC50 [1] of 43 nM.

`COc1ccc(C(C)(C)c2csc(NC(=O)N3CC(c4ccc(N5CCNCC5)cc4)C3)n2)cc1` [A233, N-(4-(2-(4-methoxyphenyl)propan-2-yl)thiazol-2-yl)-3-(4-(piperazin-1-yl)phenyl)azetidine-1-carboxamide] showed an IC50 ([2]; Homo sapiens, HEK293) of 330 nM.

Compound `C#CC(C)(c1ccc(Cl)cc1)c1csc(NC(=O)c2ccc(N3CCNCC3)cc2F)n1` (stereo not drawn) [B065, N-(4-(2-(4-chlorophenyl)but-3-yn-2-yl)thiazol-2-yl)-2-fluoro-4-(piperazin-1-yl)benzamide] has an IC50 [1, 6] of 34 nM.

`COc1ccc(C(C)(C)c2csc(NC(=O)NCCCCNc3ccccc3)n2)cc1` [A147, 1-(4-(2-(4-methoxyphenyl)propan-2-yl)thiazol-2-yl)-3-(4-(phenylamino)butyl)urea] showed an IC50 [1] of 235 nM.

— patent US20240226094A1, “ALPHA PROTEIN KINASE 1 INHIBITORS FOR USE IN TREATING KAWASAKI DISEASE” (Shanghai Yao Yuan Biotechnology Co., Ltd., priority 2021, published 2024)
